Results taken from patent US4072757A, “N^2 alkoxynaphthylsulfonyl-L-argininamides and the pharmaceutically acceptable salts thereof” (Mitsubishi Chemical Industries Limited, priority 1974, dated 1978).

molecular target: T1, thrombin (Bos taurus, UniProt P00735); experiment: fibrinogen coagulation time; format: biochemical; conditions: bovine fibrinogen, thrombin 5 units/ml, borate saline buffer pH 7.4, 25° C; normal coagulation time 50-55 seconds to 100-110 seconds; read-out: Concentration required to prolong the coagulation time by a factor of two
T1 construct: clotting of bovine fibrinogen
Procedure: The measurement of the fibrinogen coagulation time was conducted as follows:
Immediately after mixing, the reaction mixture was transferred from the ice bath to a bath maintained at 25° C. Coagulation times were taken as the period between the time of transference to the 25° C bath and the time of the first appearance of fibrin threads.
The term "concentration required to prolong the coagulation time by a factor of two" is the concentration of an active ingredient required to prolong the normal coagulation time 50-55 seconds to 100-110 seconds.

SMILES	IC (2-fold clotting time) [µM]
COc1cc2ccc(S(=O)(=O)N[C@@H](CCCNC(=N)N)C(=O)N3CCC(C)CC3C(=O)O)cc2cc1OC (stereo partly drawn) [Sample 5, 1-[N^2-(6,7-dimethoxy-2-naphthylsulfonyl)-L-arginyl]-4-methyl-2-piperidinecarboxylic acid]	0.4
COc1ccc2cc(S(=O)(=O)N[C@@H](CCCNC(=N)N)C(=O)N3CCC(C)CC3C(=O)O)cc(OC)c2c1 (stereo partly drawn) [Sample 11, 1-[N^2-(4,6-dimethoxy-2-naphthylsulfonyl)-L-arginyl]-4-methyl-2-piperidinecarboxylic acid]	0.35
CCCC1CCN(C(=O)[C@H](CCCNC(=N)N)NS(=O)(=O)c2ccc3cc(OC)c(OC)cc3c2)C(C(=O)O)C1 (stereo partly drawn) [Sample 19, 1-[N^2-(6,7-dimethoxy-2-naphthylsulfonyl)-L-arginyl]-4-propyl-2-piperidinecarboxylic acid]	0.5
COc1cc2ccc(S(=O)(=O)N[C@@H](CCCNC(=N)N)C(=O)N3CCC(c4ccccc4)CC3C(=O)O)cc2cc1OC (stereo partly drawn) [Sample 30, 1-[N^2-(6,7-dimethoxy-2-naphthylsulfonyl)-L-arginyl]-4-phenyl-2-piperidinecarboxylic acid]	12

More lines, now with the values ahead:

IC (2-fold clotting time) [µM]	SMILES
3	COc1ccc2cc(S(=O)(=O)N[C@@H](CCCNC(=N)N)C(=O)N3CCCCC3C(=O)O)ccc2c1 (stereo partly drawn) [Sample 4, 1-[N^2-(6-methoxy-2-naphthylsulfonyl)-L-arginyl]-2-piperidinecarboxylic acid]
0.15	COc1ccc2ccc(S(=O)(=O)N[C@@H](CCCNC(=N)N)C(=O)N3CCC(C)CC3C(=O)O)cc2c1 (stereo partly drawn) [Sample 7, 1-[N^2-(7-methoxy-2-naphthylsulfonyl)-L-arginyl]-4-methyl-2-piperidinecarboxylicacid]

tested on: not listed separately; experiment: acute toxicity (LD50) by intraperitoneal administration in mice; conditions: mouse, in vivo, ip, mice (male, 20 g)
Procedure: On the other hand, LD50 values for N^2 -dansyl-N-butyl-L-argininamide and N^2 -dansyl-N-methyl-N-butyl-L-argininamide are 75 and 70 milligrams per kilogram, respectively. The therapeutic agents of this invention may be administered to mammals including humans, alone or in combination with pharmaceutically acceptable carriers, the proportion of which is determined by the solubility and chemical nature of the compound, chosen route of administration and standard pharmaceutical practice. For example, the compounds may be injected parenterally, that is, intramuscularly, intravenously or subcutaneously. For parenteral administration, the compounds may be used in the form of sterile solutions containing other solutes, for example, sufficient saline or glucose to make the solution isotonic. The compounds may be administered orally in the form of tablets, capsules, or granules containing suitable excipients such as starch, lactose, white sugar and the like. The compounds may be administered sublingually in the form of troches or lozenges in which each active ingredient is mixed with sugar or corn syrups, flavoring agents and dyes, and then dehydrated sufficiently to make the mixture suitable for pressing into solid form. The compounds may be administered orally in the form of solutions which may contain coloring and flavoring agents.

SMILES	LD50 [mg/kg]
COc1cc2ccc(S(=O)(=O)N[C@@H](CCCNC(=N)N)C(=O)N3CCCCC3C(=O)O)cc2cc1OC (stereo partly drawn) [Sample 2, 1-[N^2-(6,7-dimethoxy-2-naphthylsulfonyl)-L-arginyl]-2-piperidinecarboxylic acid]	1500
CCOC(=O)C1CC(C)CCN1C(=O)[C@H](CCCNC(=N)N)NS(=O)(=O)c1ccc2ccc(OC)cc2c1 (stereo partly drawn) [Sample 6, Ethyl 1-[N^2-(7-methoxy-2-naphthylsulfonyl)-L-arginyl]-4-methyl-2-piperidinecarboxylate]	670 to 1000
COc1ccc2cc(S(=O)(=O)N[C@@H](CCCNC(=N)N)C(=O)N3CCC(C)CC3C(=O)O)cc(OC)c2c1 (stereo partly drawn) [Sample 11, 1-[N^2-(4,6-dimethoxy-2-naphthylsulfonyl)-L-arginyl]-4-methyl-2-piperidinecarboxylic acid]	670 to 1000
